Source: patent US9428496B2, “Thiazolamine derivative and use thereof as anti-picornaviral infection medicament” (Institute of Pharmacology and Toxicology Academy of …, priority 2010, dated 2016)
In brackets after ≈: the same amount, converted by molar mass. Where two headings read alike, the source gives them in different places.

Key:
enterovirus Cox A16 = assay: microbe, parasite or virus in culture; type: cell-based; settings: for IC50: Enterovirus, read-out: CoxA16 IC50; for CoxA16 SI: CoxA16, Vero cells
Protocol: (§1) Anti-picornaviral activity of the compounds of the present invention in in vitro model Test item: activity screening of compounds against enteroviruses EV71 and Cox A16 Test principle: using Vero cells as virus host, the cytopathic effect of Vero cells induced by the inhibition of compounds against enteroviruses EV71 and Cox A16 was measured.
(§2) 1. Virus strains: enteroviruses EV71 (Shenzhen 98) and Cox A16, passaging in the laboratory.
(§3) Test Method: Vero cells were incubated in a 96-well culture plate. After 24 hours, they were infected with EV71 and Cox A16 by adsorption for 2 hours. After discarding the virus solution, maintenance solutions containing different concentrations of samples and positive controls were added, and, at the same time, cell control wells and virus control wells were set. […] The half inhibitory concentrations (IC50) of the samples against EV71 and Cox A16 were respectively calculated according to the Reed-Muench method.

[1] = system: enterovirus EV71 (Shenzhen 98); assay: Inhibition of cytopathic effect (CPE) induced by EV71 in Vero cells; type: cell-based; settings: for IC50 / EV71 IC50: CPE in Vero cells, Reed-Muench method; for EV71 SI: EV71, Vero cells
Protocol: as §1, §2, §3

Vero cells = assay: Toxicity of compounds to the Vero host cells (TC50, TC0); type: cell-based
[2] = CPE in Vero cells, Reed-Muench method

| Molecule | IC50 (enterovirus Cox A16; [2]) | CoxA16 SI (enterovirus Cox A16) | IC50 [1] | TC0 (Vero cells; Vero cells) | TC50 (Vero cells; Vero cells) | melting point | EV71 SI [1] | CoxA16 IC50 (enterovirus Cox A16; [2]) | EV71 IC50 [1] | TC0 (Vero cells) | TC50 (Vero cells) | IC50 (enterovirus Cox A16; Vero) |
| --- | --- | --- | --- | --- | --- | --- | --- | --- | --- | --- | --- | --- |
| Cc1ccc(OCCCCCCN2CCN(c3nccs3)CC2)cc1 [Example 8, 2-{4-[6-(4-methylphenoxy)hexyl]piperazin-1-yl}thiazole] | 4.96 mg/L (≈ 13.8 µM) | 5.0 | > 12.5 mg/L | 12.5 µg/mL | 25.0 mg/L (≈ 69.5 µM) | 37 to 39 °C |  |  |  |  |  |  |
| COc1ccc(OCCCCCCN2CCN(c3nccs3)CC2)cc1.Cl [Example 20, 2-{4-[6-(4-methoxyphenoxy)hexyl]piperazin-1-yl}thiazole hydrochloride] | > 3.13 mg/L |  | > 3.13 mg/L | 3.13 µg/mL | 63.0 mg/L | 221 to 223 °C |  |  |  |  |  |  |
| CC(C)c1ccc(OCCCCCCN2CCN(c3nccs3)CC2)cc1.Cl [Example 23, 2-{4-[6-(4-isopropylphenoxy)hexyl]piperazin-1-yl}thiazole hydrochloride] | 0.57 mg/L | 34.8 | 1.97 mg/L | 3.13 µg/mL | 19.84 mg/L | 135 to 137 °C | 10.1 |  |  |  |  |  |
| 5-{4-[3-(4′-ethoxybiphenyl-4-oxy)pentyl]piperazin-1-yl}thiazole [Example 15] |  | >2.0 |  |  |  |  |  | 100 mg/L | >200.0 mg/L | >200.0 µg/mL | >200.0 mg/L |  |
| CCOc1ccc(OCCCCCN2CCN(c3nccs3)CC2)cc1 [Example 2, 2-{4-[5-(4-ethoxyphenoxy)pentyl]piperazin-1-yl}thiazole] | 1.97 mg/L (≈ 5.25 µM) | 12.7 | 7.87 mg/L (≈ 21 µM) | 12.5 µg/mL | 25.0 mg/L (≈ 66.6 µM) | 79 to 81 °C | 3.2 |  |  |  |  |  |
| CCc1ccc(OCCCCCN2CCN(c3nccs3)CC2)cc1 [Example 4, 2-{4-[5-(4-ethylphenoxy)pentyl]piperazin-1-yl}thiazole] | 1.97 mg/L (≈ 5.48 µM) | 6.3 | > 3.13 mg/L | 3.13 µg/mL | 12.5 mg/L (≈ 34.8 µM) | 125 to 127 °C |  |  |  |  |  |  |
| CCc1ccc(OCCCCCCN2CCN(c3nccs3)CC2)cc1 [Example 9, 2-{4-[6-(4-ethylphenoxy)hexyl]piperazin-1-yl}thiazole] | 3.13 mg/L (≈ 8.38 µM) | 2.0 | 1.97 mg/L (≈ 5.27 µM) | 3.13 µg/mL | 6.25 mg/L (≈ 16.7 µM) | 21 to 23 °C | 3.2 |  |  |  |  |  |
| CC(C)c1ccc(OCCCCCN2CCN(c3nccs3)CC2)cc1 [Example 5, 2-{4-[5-(4-isopropylphenoxy)pentyl]piperazin-1-yl}thiazole] | 1.57 mg/L (≈ 4.2 µM) | 4.0 | > 3.13 mg/L | 3.13 µg/mL | 6.25 mg/L (≈ 16.7 µM) | 128 to 130 °C |  |  |  |  |  |  |
| Brc1ccc(OCCCCCN2CCN(c3nccs3)CC2)cc1 [Example 17, 2-{4-[5-(4-bromophenoxy)pentyl]piperazin-1-yl}thiazole] | > 0.78 mg/L |  | > 0.78 mg/L | 0.78 µg/mL | 4.96 mg/L (≈ 12.1 µM) | 73 to 75 °C |  |  |  |  |  |  |
| CC(C)(C)c1ccc(OCCCCCCN2CCN(c3nccs3)CC2)cc1 [Example 11, 2-{4-[6-(4-tert-butylphenoxy)hexyl]piperazin-1-yl}thiazole] | 3.13 mg/L (≈ 7.79 µM) | 2.0 | 1.57 mg/L (≈ 3.91 µM) | 3.13 µg/mL | 6.25 mg/L (≈ 15.6 µM) | 30 to 32 °C | 4.0 |  |  |  |  |  |
| Brc1ccc(OCCCCCCN2CCN(c3nccs3)CC2)cc1 [Example 14, 2-{4-[6-(4-bromophenoxy)hexyl]piperazin-1-yl}thiazole] | 6.25 mg/L (≈ 14.7 µM) | 5.0 | > 12.5 mg/L | 12.5 µg/mL | 31.5 mg/L (≈ 74.2 µM) | 66 to 68 °C |  |  |  |  |  |  |
| CC(C)(C)c1ccc(OCCCCCN2CCN(c3nccs3)CC2)cc1 [Example 6, 2-{4-[5-(4-tert-butylphenoxy)pentyl]piperazin-1-yl}thiazole] | 1.57 mg/L (≈ 4.05 µM) | 4.0 | > 3.13 mg/L | 3.13 µg/mL | 6.25 mg/L (≈ 16.1 µM) | 125 to 127 °C |  |  |  |  |  |  |
| Cl.c1ccc(OCCCCCN2CCN(c3nccs3)CC2)cc1 [Example 19, 2-[4-(5-phenoxypentyl)piperazin-1-yl]thiazole hydrochloride] | 12.5 mg/L | 6.3 | > 12.5 mg/L | 12.5 µg/mL | 79.37 mg/L | 145 to 147 °C |  |  |  |  |  |  |
| 2-{4-[5-(4-tert-butylphenoxy)pentyl]piperazin-1-yl}thiazole hydrochloride [Example 22] |  | 4.0 |  |  |  |  | 12.7 | 6.25 mg/L | 1.97 mg/L | 12.5 µg/mL | 25.0 mg/L |  |
| c1ccc(OCCCCCCN2CCN(c3nccs3)CC2)cc1 [Example 10, 2-[4-(6-phenoxyhexyl)piperazin-1-yl]thiazole] | 12.5 mg/L (≈ 36.2 µM) | 2.0 | > 12.5 mg/L | 12.5 µg/mL | 25.0 mg/L (≈ 72.4 µM) | 37 to 39 °C |  |  |  |  |  |  |
| Fc1ccc(OCCCCCN2CCN(c3nccs3)CC2)cc1 [Example 3, 2-{4-[5-(4-fluorophenoxy)pentyl]piperazin-1-yl}thiazole] | > 12.5 mg/L |  | > 12.5 mg/L | 12.5 µg/mL | 79.37 mg/L (≈ 227 µM) | 42 to 44 °C |  |  |  |  |  |  |
| COc1ccc(OCCCCCN2CCN(c3nccs3)CC2)cc1 [Example 1, 2-{4-[5-(4-methoxyphenoxy)pentyl]piperazin-1-yl}thiazole] | 25 mg/L (≈ 69.2 µM) | 4.0 | 36.3 mg/L (≈ 100 µM) | 50.0 µg/mL | 100.0 mg/L (≈ 277 µM) | 83 to 85 °C | 2.8 |  |  |  |  |  |
| NC(=O)c1ncn([C@@H]2O[C@H](CO)[C@@H](O)[C@H]2O)n1 [Con, ribavirin, reference compound] |  |  | 517 mg/L (≈ 2120 µM) | 500.0 µg/mL | 2000 mg/L (≈ 8190 µM) |  |  |  |  |  |  | 363 mg/L (≈ 1490 µM) |
| Brc1ccc(OCCCCCN2CCN(c3nccs3)CC2)cc1.Cl [Example 18, 2-{4-[5-(4-bromophenoxy)pentyl]piperazin-1-yl}thiazole hydrochloride] | > 0.78 mg/L |  | > 0.78 mg/L | 0.78 µg/mL | 4.96 mg/L | 221 to 223 °C |  |  |  |  |  |  |
| CCOc1ccc(OCCCCCCN2CCN(c3nccs3)CC2)cc1.Cl [Example 21, 2-{4-[6-(4-ethoxyphenoxy)hexyl]piperazin-1-yl}thiazole hydrochloride] | 3.13 mg/L | 8.0 | 1.97 mg/L | 3.13 µg/mL | 25.0 mg/L | 222 to 224 °C | 12.7 |  |  |  |  |  |
| Fc1ccc(OCCCCCCN2CCN(c3nccs3)CC2)cc1 [Example 12, 2-{4-[6-(4-fluorophenoxy)hexyl]piperazin-1-yl}thiazole] | > 12.5 mg/L |  | > 12.5 mg/L | 12.5 µg/mL | 25.0 mg/L (≈ 68.8 µM) | 58 to 60 °C |  |  |  |  |  |  |
| Cc1ccc(OCCCCCN2CCN(c3nccs3)CC2)cc1 [Example 7, 2-{4-[5-(4-methylphenoxy)pentyl]piperazin-1-yl}thiazole] | > 3.13 mg/L |  | > 3.13 mg/L | 3.13 µg/mL | 19.84 mg/L (≈ 57.4 µM) | 125 to 127 °C |  |  |  |  |  |  |
| 2-{4-[5-(4-tert-butylphenoxy)pentyl]piperazin-1-yl}thiazole [Example 16] |  | 5.8 |  | 12.5 µg/mL | 25.0 mg/L |  |  | 4.30 mg/L | >12.5 mg/L |  |  |  |
| 2-{4-[5-(4-tert-butylphenoxy)pentyl]piperazin-1-yl}thiazole [Example 13] |  | 3.2 |  | 12.5 µg/mL | 25.0 mg/L |  |  | 7.87 mg/L | >12.5 mg/L |  |  |  |
